The target in assay [1] is T1, Integrin alpha-IIb/beta-3 (Homo sapiens, UniProt P05106+P08514). The experiment in a line: Inhibition of [3H]Mba-(N-Me)Arg-Gly-Asp-Man binding to GPIIb/IIIa from human platelets reconstituted in liposomes.
For assay [2], the target named is T1, Integrin alpha-IIb/beta-3. Nature of the assay: Inhibition of [3H]Mba-(N-Me)Arg-Gly-Asp-Man binding to fibrinogen receptor of human platelets reconstituted in liposomes.
In assay [3] the target is T1, Integrin alpha-IIb/beta-3. The experiment in a line: Inhibition of [3H]Mba-(N-Me)Arg-Gly-Asp-Man binding to Fibrinogen Receptor from human platelets reconstituted in liposomes.

T1 sequence (P05106 27-788 limits assumed): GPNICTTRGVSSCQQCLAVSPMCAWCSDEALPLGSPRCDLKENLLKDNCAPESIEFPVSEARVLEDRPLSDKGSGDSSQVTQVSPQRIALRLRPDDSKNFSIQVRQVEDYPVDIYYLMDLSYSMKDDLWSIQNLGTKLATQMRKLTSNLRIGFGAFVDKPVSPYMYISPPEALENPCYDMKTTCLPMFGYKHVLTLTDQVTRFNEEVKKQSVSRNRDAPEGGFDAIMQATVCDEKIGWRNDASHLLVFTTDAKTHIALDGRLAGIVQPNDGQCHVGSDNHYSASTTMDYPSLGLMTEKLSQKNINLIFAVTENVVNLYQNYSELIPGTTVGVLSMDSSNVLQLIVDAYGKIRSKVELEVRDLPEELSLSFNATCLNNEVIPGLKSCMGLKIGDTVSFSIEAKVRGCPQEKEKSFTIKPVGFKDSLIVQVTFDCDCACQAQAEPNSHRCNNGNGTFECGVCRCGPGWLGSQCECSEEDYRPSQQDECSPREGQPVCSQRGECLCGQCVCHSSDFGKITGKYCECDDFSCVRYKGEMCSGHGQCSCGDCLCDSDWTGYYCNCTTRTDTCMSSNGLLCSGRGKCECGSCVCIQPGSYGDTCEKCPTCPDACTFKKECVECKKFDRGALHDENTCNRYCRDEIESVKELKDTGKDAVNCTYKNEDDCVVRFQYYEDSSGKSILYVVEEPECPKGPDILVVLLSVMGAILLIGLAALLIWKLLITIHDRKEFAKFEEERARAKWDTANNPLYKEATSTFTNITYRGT
T1 sequence (P08514 32-887 limits assumed): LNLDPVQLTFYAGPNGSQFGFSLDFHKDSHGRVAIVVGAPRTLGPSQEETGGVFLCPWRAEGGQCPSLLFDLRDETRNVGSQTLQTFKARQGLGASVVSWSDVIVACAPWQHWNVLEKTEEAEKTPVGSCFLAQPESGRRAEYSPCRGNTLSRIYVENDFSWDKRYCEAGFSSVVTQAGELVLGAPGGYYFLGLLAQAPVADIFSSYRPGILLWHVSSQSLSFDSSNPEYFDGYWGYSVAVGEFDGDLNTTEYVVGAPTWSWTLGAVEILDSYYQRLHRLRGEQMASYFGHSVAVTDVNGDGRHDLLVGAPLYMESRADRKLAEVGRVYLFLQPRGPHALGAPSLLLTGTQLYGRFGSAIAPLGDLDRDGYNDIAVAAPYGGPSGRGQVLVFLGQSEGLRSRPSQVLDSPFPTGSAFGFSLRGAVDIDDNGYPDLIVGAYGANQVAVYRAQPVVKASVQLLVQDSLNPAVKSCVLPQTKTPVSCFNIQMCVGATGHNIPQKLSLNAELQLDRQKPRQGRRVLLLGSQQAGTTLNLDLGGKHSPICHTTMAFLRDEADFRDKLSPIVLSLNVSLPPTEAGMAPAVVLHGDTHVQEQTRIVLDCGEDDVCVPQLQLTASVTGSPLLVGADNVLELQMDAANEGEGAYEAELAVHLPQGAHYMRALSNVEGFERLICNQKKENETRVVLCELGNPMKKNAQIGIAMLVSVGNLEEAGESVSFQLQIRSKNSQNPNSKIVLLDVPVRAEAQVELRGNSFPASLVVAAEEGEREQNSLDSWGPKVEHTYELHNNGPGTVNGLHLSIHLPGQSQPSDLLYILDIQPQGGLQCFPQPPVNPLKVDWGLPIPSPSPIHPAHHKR
T1 sequence (P08514 891-1039 limits assumed): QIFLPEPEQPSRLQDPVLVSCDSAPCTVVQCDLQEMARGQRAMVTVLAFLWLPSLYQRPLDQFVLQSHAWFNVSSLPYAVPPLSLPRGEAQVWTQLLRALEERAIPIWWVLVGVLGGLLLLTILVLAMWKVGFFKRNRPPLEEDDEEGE

Compound `N=C(N)NCCC[C@@H]1NC(=O)[C@@H]2CCCN2C(=O)CNC(=O)[C@H]2CCCN2C(=O)[C@H](CC(=O)O)NC(=O)CNC1=O` gave a Ki in assay [1] of more than 100 µM.

In the case of `CN(C(=O)c1ccccc1S)[C@@H](CCCNC(=N)N)C(=O)NCC(=O)N[C@@H](CC(=O)O)C(=O)Nc1ccccc1S`, the inhibition constant Ki in assay [2] amounted to 0.004 µM.

In turn, `CC(=O)N[C@@H](CS)C(=O)N(C)[C@@H](CCCN=C(N)N)C(=O)NCC(=O)N[C@@H](CC(=O)O)C(=O)N[C@H](C(N)=O)C(C)(C)S` registered an inhibition constant (Ki) in assay [2] of 0.175 µM.

`CC(=O)N[C@@H](CS)C(=O)N[C@H](CCCN=C(N)N)C(=O)NCC(=O)N[C@@H](CC(=O)O)C(=O)N[C@H](C(N)=O)C(C)(C)S`: the inhibition constant Ki in assay [2] was 3.3 µM.

With `N=C(N)NCCC[C@@H]1NC(=O)[C@@H]2CCCN2C(=O)[C@@H](Cc2ccccc2)NC(=O)CNC(=O)[C@H](CC(=O)O)NC(=O)CNC1=O`, in assay [1], the Ki turned out to be 18.5 µM.

In the case of `CC(=O)N[C@@H](CS)C(=O)N[C@@H](CCCN=C(N)N)C(=O)NCC(=O)N[C@@H](CC(=O)O)C(=O)NC(C(N)=O)C(C)(C)S` (stereo in doubt), the affinity in assay [3], expressed as Ki, was 3.13 µM.

These data come from ChEMBL document CHEMBL1126222, “Investigation of conformational specificity at GPIIb/IIIa: evaluation of conformationally constrained RGD peptides” (J Med Chem, 1992).
